Test results taken from the NIST ThermoML archive (doi:10.1021/je700260f).

Conditions: Liquid, Vibrating tube method

FC(C(F)(F)F)C(F)(F)F [1,1,1,2,3,3,3-heptafluoropropane]
Conditions | mass density [kg/m3]
313.14 K, 30999 kPa | 1493.6
313.14 K, 31036 kPa | 1493.7
313.14 K, 31073 kPa | 1494
313.14 K, 31110 kPa | 1494.1
313.14 K, 31162 kPa | 1494.3
313.14 K, 31193 kPa | 1494.3
313.14 K, 31225 kPa | 1494.5
313.14 K, 31252 kPa | 1494.5
313.14 K, 31284 kPa | 1494.6
313.14 K, 31324 kPa | 1494.9
313.14 K, 31355 kPa | 1494.8
313.14 K, 31397 kPa | 1495.1
313.14 K, 31585 kPa | 1495.6
313.14 K, 31617 kPa | 1495.8
313.14 K, 31653 kPa | 1495.9
313.14 K, 31696 kPa | 1495.9
313.14 K, 31739 kPa | 1496.2
313.14 K, 32132 kPa | 1497.6
313.14 K, 32203 kPa | 1497.7
313.14 K, 32369 kPa | 1498.3
313.14 K, 32414 kPa | 1498.5
313.14 K, 32447 kPa | 1498.5
313.14 K, 32485 kPa | 1498.7
313.14 K, 32523 kPa | 1498.9
313.14 K, 32566 kPa | 1499
313.14 K, 32604 kPa | 1499
313.14 K, 32652 kPa | 1499.4
313.14 K, 32736 kPa | 1499.5
313.14 K, 32789 kPa | 1499.7
313.14 K, 32821 kPa | 1500
313.14 K, 32853 kPa | 1500
313.14 K, 32900 kPa | 1500.1
313.14 K, 32937 kPa | 1500.2
313.14 K, 32975 kPa | 1500.4
313.14 K, 33013 kPa | 1500.5
313.14 K, 33094 kPa | 1500.7
313.15 K, 714 kPa | 1321.1
313.15 K, 733 kPa | 1321.4
313.15 K, 755 kPa | 1321.6
313.15 K, 777 kPa | 1321.7
313.15 K, 797 kPa | 1322.1
313.15 K, 819 kPa | 1322.3
313.15 K, 838 kPa | 1322.5
313.15 K, 871 kPa | 1322.8
313.15 K, 891 kPa | 1323.2
313.15 K, 917 kPa | 1323.3
313.15 K, 934 kPa | 1323.7
313.15 K, 963 kPa | 1323.9
313.15 K, 985 kPa | 1324
313.15 K, 1014 kPa | 1324.4
313.15 K, 1036 kPa | 1324.7
313.15 K, 1063 kPa | 1325
313.15 K, 1087 kPa | 1325.1
313.15 K, 1117 kPa | 1325.7
313.15 K, 1146 kPa | 1325.9
313.15 K, 1167 kPa | 1326.1
313.15 K, 1191 kPa | 1326.5
313.15 K, 1222 kPa | 1326.6
313.15 K, 1249 kPa | 1327
313.15 K, 1273 kPa | 1327.4
313.15 K, 1296 kPa | 1327.6
313.15 K, 1317 kPa | 1327.7
313.15 K, 1338 kPa | 1328
313.15 K, 1369 kPa | 1328.3
313.15 K, 1396 kPa | 1328.6
313.15 K, 1472 kPa | 1329.4
313.15 K, 1496 kPa | 1329.6
313.15 K, 1525 kPa | 1330
313.15 K, 1550 kPa | 1330.3
313.15 K, 1575 kPa | 1330.4
313.15 K, 1597 kPa | 1330.7
313.15 K, 1618 kPa | 1331
313.15 K, 1653 kPa | 1331.4
313.15 K, 1677 kPa | 1331.6
313.15 K, 1698 kPa | 1331.7
313.15 K, 1726 kPa | 1332.2
313.15 K, 1744 kPa | 1332.4
313.15 K, 1772 kPa | 1332.6
313.15 K, 1793 kPa | 1332.8
313.15 K, 1811 kPa | 1333
313.15 K, 1836 kPa | 1333.3
313.15 K, 1864 kPa | 1333.4
313.15 K, 1893 kPa | 1333.9
313.15 K, 1921 kPa | 1334.1
313.15 K, 1946 kPa | 1334.4
313.15 K, 1972 kPa | 1334.7
313.15 K, 1998 kPa | 1334.8
313.15 K, 2028 kPa | 1335.1
313.15 K, 2049 kPa | 1335.2
313.15 K, 2077 kPa | 1335.6
313.15 K, 2102 kPa | 1335.9
313.15 K, 2131 kPa | 1336.1
313.15 K, 2153 kPa | 1336.4
313.15 K, 2183 kPa | 1336.7
313.15 K, 2208 kPa | 1337
313.15 K, 2230 kPa | 1337.2
313.15 K, 2692 kPa | 1341.6
313.15 K, 2720 kPa | 1342
313.15 K, 2751 kPa | 1342.2
313.15 K, 2775 kPa | 1342.4
313.15 K, 2803 kPa | 1342.8
313.15 K, 2825 kPa | 1342.9
